{"source": "patent US20090075937A1", "about": "“LHRH ANTAGONISTS FOR THE TREATMENT OF LOWER URINARY TRACT SYMPTOMS” (AETERNA ZENTARIS GmbH, priority 2007, published 2009)", "key": {"[1]": {"test_system": "study subjects", "experiment": "Peroral treatment of study subjects with tetrahydrocarbazole compounds: nocturia frequency, urgency to urinate, frequency of emptying (Examples 4-9)", "assay_type": "in vivo, human", "conditions": "50 to 150 mg perorally daily as a single dose, schemes of 6 weeks to 6 months"}, "[2]": {"test_system": "study subjects", "experiment": "Peroral treatment of study subjects with tetrahydrocarbazole compounds: chemical (hormonal) castration (Examples 4-9)", "assay_type": "in vivo, human", "conditions": "50 to 150 mg perorally daily as a single dose, schemes of 6 weeks to 6 months", "procedure": "In the course of the present invention, the terms “hormone” and “hormonal” within for instance the terms “hormone castration”, “chemical (hormonal) castration” or “hormone withdrawal symptoms” refer to follicle stimulating hormone (FSH), luteinizing hormone (LH) and/or testosterone. Preferably, chemical (hormonal) castration is a testosterone castration and refers to a testosterone blood level of equal or below 1.2 ng/mL, preferably 0.5 ng/mL.\nStudy subjects are treated with compound (76) with the following doses according to the following administration schemes: • in a 3 month trial, 75 mg or 150 mg compound (76) administered perorally daily as a single dose on day 2-7 of the menstrual cycle • in a 3 months trial, 75 mg, 100 mg or 150 mg compound (76) administered perorally daily as a single dose on day 2-7 of the menstrual cycle followed by a 3 months treatment-free period • in a 6 months trial, 75 mg or 150 mg compound (76) administered perorally daily as a single dose • 50 mg or 150 mg per compound (76) administered daily as a single dose over 42 days (6 weeks)\nStudy subjects are treated with compound (68) with the following doses according to the following administration schemes: • in a 3 month trial, 75 mg or 150 mg compound (68) administered perorally daily as a single dose on day 2-7 of the menstrual cycle • in a 3 months trial, 75 mg, 100 mg or 150 mg compound (68) administered perorally daily as a single dose on day 2-7 of the menstrual cycle followed by a 3 months treatment-free period • in a 6 months trial, 75 mg or 150 mg compound (68) administered perorally daily as a single dose • 50 mg or 150 mg per compound (68) administered daily as a single dose over 42 days (6 weeks)\nStudy subjects are treated with compound 36 with the following doses according to the following administration schemes: • in a 3 month trial, 75 mg or 150 mg compound 36 administered perorally daily as a single dose on day 2-7 of the menstrual cycle • in a 3 months trial, 75 mg, 100 mg or 150 mg compound 36 administered perorally daily as a single dose on day 2-7 of the menstrual cycle followed by a 3 months treatment-free period • in a 6 months trial, 75 mg or 150 mg compound 36 administered perorally daily as a single dose • 50 mg or 150 mg per compound 36 administered daily as a single dose over 42 days (6 weeks)\nStudy subjects are treated with compound 37 with the following doses according to the following administration schemes: • in a 3 month trial, 75 mg or 150 mg compound 37 administered perorally daily as a single dose on day 2-7 of the menstrual cycle • in a 3 months trial, 75 mg, 100 mg or 150 mg compound 37 administered perorally daily as a single dose on day 2-7 of the menstrual cycle followed by a 3 months treatment-free period • in a 6 months trial, 75 mg or 150 mg compound 37 administered perorally daily as a single dose • 50 mg or 150 mg per compound 37 administered daily as a single dose over 42 days (6 weeks)\nStudy subjects are treated with compound 52 with the following doses according to the following administration schemes: • in a 3 month trial, 75 mg or 150 mg compound 52 administered perorally daily as a single dose on day 2-7 of the menstrual cycle • in a 3 months trial, 75 mg, 100 mg or 150 mg compound 52 administered perorally daily as a single dose on day 2-7 of the menstrual cycle followed by a 3 months treatment-free period • in a 6 months trial, 75 mg or 150 mg compound 52 administered perorally daily as a single dose • 50 mg or 150 mg per compound 52 administered daily as a single dose over 42 days (6 weeks)"}}}
{"compound": "CCC(C)[C@H](NC(=O)Cc1ccccc1F)C(=O)N[C@]1(C(=O)N[C@H](C(N)=S)C(C)CC)CCc2[nH]c3c(Cl)cc(F)cc3c2C1", "note": "(stereo partly drawn) [compound (68), (R)-8-chloro-6-fluoro-3-{(S)-2-[2-(2-fluorophenyl)acetylamino]-3-methyl-pentanoylamino}-2,3,4,9-tetrahydro-1H-carbazole-3-carboxylic acid ((S)-2-methyl-1-thiocarbamoylbutyl)amide]", "values": [{"measurement": "nocturia frequency, urgency to urinate and/or frequency of emptying compared to placebo", "setting": "[1]", "result": "decrease"}, {"measurement": "chemical (hormonal) castration", "setting": "[2]", "result": "successfully prevented"}]}
{"compound": "CCC(C)[C@H](NC(=O)Cc1ccccc1F)C(=O)N[C@]1(C(=O)N[C@H](C(N)=S)C(C)CC)CCc2[nH]c3c(C(F)(F)F)cccc3c2C1", "note": "(stereo partly drawn) [compound (76), (R)-3-{(S)-2-[2-(2-fluorophenyl)acetylamino]-3-methyl-pentanoylamino}-8-trifluoromethyl-2,3,4,9-tetrahydro-1H-carbazole-3-carboxylic acid ((S)-2-methyl-1-thiocarbamoylbutyl)amide]", "values": [{"measurement": "nocturia frequency, urgency to urinate and/or frequency of emptying compared to placebo", "setting": "[1]", "result": "decrease"}, {"measurement": "chemical (hormonal) castration", "setting": "[2]", "result": "successfully prevented"}]}
